ChEMBL document CHEMBL1157236, “A reassignment of (-)-mycothiazole and the isolation of a related diol” (2006)

Legend:
MDA-MB-435 = assay: Growth inhibition of human MDA-MB-435 cells; format: functional
[1] = Growth inhibition of human OVACR3 cells; format: functional
SF-295 = assay: Growth inhibition of human SF295 cells; format: functional
L1210 = assay: Selectivity for mouse C38 cells over mouse L1210 cells; format: functional
T47D = assay: Growth inhibition of human T47D cells; format: functional; conditions: read-out: pGI50 (converted)
DMS-114 = assay: Growth inhibition of human DMS114 cells; format: functional
CCRF-CEM = assay: Growth inhibition of human CCRF-CEM cells; format: functional
IGROV-1 = assay: Growth inhibition of human IGROV1 cells; format: functional
HCC 2998 = assay: Growth inhibition of human HCC2998 cells; format: functional; conditions: HCC 2998, read-out: pGI50 (converted)
NCI-H23 = assay: Growth inhibition of human NCI-H23 cells; format: functional
PC-3 = assay: Growth inhibition of human PC3 cells; format: functional; conditions: PC-3, read-out: pGI50 (converted)
XF498 = assay: Growth inhibition of human XF498 cells; format: functional
NCI-H226 = assay: Growth inhibition of human NCI-H226 cells; format: functional; conditions: NCI-H226, read-out: pGI50 (converted)
UACC-62 = assay: Growth inhibition of human UACC62 cells; format: functional
[2] = Growth inhibition of human […] cells; format: functional
LOX IMVI = assay: Growth inhibition of human LOX IMVI cells; format: functional
TK-10 = assay: Growth inhibition of human TK10 cells; format: functional; conditions: TK-10, read-out: pGI50 (converted)
NCI-H322M = assay: Growth inhibition of human NCI-H322M cells; format: functional
[3] = Growth inhibition of human OVACR5 cells; format: functional; conditions: OVACR5, read-out: pGI50 (converted)
SK-MEL-2 = assay: Growth inhibition of human SK-MEL-2 cells; format: functional; conditions: SK-MEL-2, read-out: pGI50 (converted)
HT-29 = assay: Growth inhibition of human HT29 cells; format: functional
KM12 = assay: Growth inhibition of human KM12 cells; format: functional
SK-MEL-28 = assay: Growth inhibition of human SK-MEL-28 cells; format: functional
M19-MEL = assay: Growth inhibition of human M19-MEL cells; format: functional
NCI-H460 = assay: Growth inhibition of human NCI-H460 cells; format: functional
SW-620 = assay: Growth inhibition of human SW620 cells; format: functional
SF-268 = assay: Growth inhibition of human SF268 cells; format: functional
[4] = Growth inhibition of human LXFL529 cells; format: functional; conditions: LXFL 529
[5] = Growth inhibition of human OVACR8 cells; format: functional
UO-31 = assay: Growth inhibition of human UO31 cells; format: functional
Hs-578T = assay: Growth inhibition of human HS578T cells; format: functional; conditions: read-out: pGI50 (converted)
SF-539 = assay: Growth inhibition of human SF539 cells; format: functional; conditions: SF-539, read-out: pGI50 (converted)
[6] = Growth inhibition of human HL60(TB) cells; format: functional, HL-60(TB); conditions: HL-60
DMS-273 = assay: Growth inhibition of human DMS273 cells; format: functional
UACC-257 = assay: Growth inhibition of human UACC257 cells; format: functional
MDA-N = assay: Growth inhibition of human MDA-N cells; format: functional
NCI/ADR-RES = assay: Growth inhibition of human NCI/ADR-RES cells; format: functional
Malme-3M = assay: Growth inhibition of human MALME3M cells; format: functional; conditions: read-out: pGI50 (converted)
SK-OV-3 = assay: Growth inhibition of human SK-OV-3 cells; format: functional
SN12C = assay: Growth inhibition of human SN12C cells; format: functional; conditions: read-out: pGI50 (converted)
ACHN = assay: Growth inhibition of human ACHN cells; format: functional
NCI-H522 = assay: Growth inhibition of human NCI-H522 cells; format: functional
SK-MEL-5 = assay: Growth inhibition of human SK-MEL-5 cells; format: functional
HCT-116 = assay: Growth inhibition of human HCT116 cells; format: functional
CAKI-1 = assay: Growth inhibition of human CAKI1 cells; format: functional
SNB-75 = assay: Growth inhibition of human SNB75 cells; format: functional
M14 = assay: Growth inhibition of human M14 cells; format: functional
U-251 = assay: Growth inhibition of human U251 cells; format: functional
HOP-92 = assay: Growth inhibition of human HOP92 cells; format: functional
COLO 205 = assay: Growth inhibition of human COLO205 cells; format: functional
HCT-15 = assay: Growth inhibition of human HCT15 cells; format: functional
A498 = assay: Growth inhibition of human A498 cells; format: functional
EKVX = assay: Growth inhibition of human EKVX cells; format: functional
786-0 = assay: Growth inhibition of human 786-0 cells; format: functional; conditions: 786-0, read-out: pGI50 (converted)
BT-549 = assay: Growth inhibition of human BT549 cells; format: functional
MOLT-4 = assay: Growth inhibition of human MOLT4 cells; format: functional
[7] = Growth inhibition of human OVACR4 cells; format: functional
KM-20L2 = assay: Growth inhibition of human KM20L2 cells; format: functional
A549 = assay: Growth inhibition of human A549 cells; format: functional
K562 = assay: Growth inhibition of human K562 cells; format: functional
[8] = Growth inhibition of human RXF631 cells; format: functional; conditions: RXF 631, read-out: pGI50 (converted)
DLD-1 = assay: Growth inhibition of human DLD1 cells; format: functional
SNB-19 = assay: Growth inhibition of human SNB19 cells; format: functional; conditions: SNB-19, read-out: pGI50 (converted)
RXF 393 = assay: Growth inhibition of human […] cells; format: functional
SR = assay: Growth inhibition of human SR cells; format: functional
HOP-62 = assay: Growth inhibition of human HOP62 cells; format: functional; conditions: HOP-62, read-out: pGI50 (converted)
DU-145 = assay: Growth inhibition of human DU145 cells; format: functional; conditions: DU-145, read-out: pGI50 (converted)
MCF7 = assay: Growth inhibition of human MCF7 cells; format: functional; conditions: MCF7, read-out: pGI50 (converted)

C=CC/C=C\Cc1csc(C(C)(C)[C@H](O)C/C=C\C(=C)CCNC(=O)OC)n1 [MYCOTHIAZOLE]
GI50 (MDA-MB-435): 50.1 µM
GI50 [1]: 25.1 µM
GI50 (SF-295): 1.26 µM
Selectivity Index (L1210): 3
GI50 (T47D): > 100 µM
GI50 (DMS-114): 0.0126 µM
GI50 (CCRF-CEM): 31.6 µM
GI50 (IGROV-1): 31.6 µM
GI50 (HCC 2998): > 100 µM
GI50 (NCI-H23): 0.251 µM
GI50 (PC-3): > 100 µM
GI50 (XF498): 50.1 µM
GI50 (NCI-H226): > 100 µM
GI50 (UACC-62): 39.8 µM
GI50 [2]: 31.6 µM
GI50 (LOX IMVI): 39.8 µM
GI50 (TK-10): > 100 µM
GI50 (NCI-H322M): 15.8 µM
GI50 [3]: > 100 µM
GI50 (SK-MEL-2): > 100 µM
GI50 (HT-29): 50.1 µM
GI50 (KM12): 63.1 µM
GI50 (SK-MEL-28): 79.4 µM
GI50 (M19-MEL): 25.1 µM
GI50 (NCI-H460): 31.6 µM
GI50 (SW-620): 25.1 µM
GI50 (SF-268): 79.4 µM
GI50 [4]: 20 µM
GI50 [5]: 79.4 µM
GI50 (UO-31): 79.4 µM
GI50 (Hs-578T): > 100 µM
GI50 (SF-539): > 100 µM
GI50 [6]: 10 µM
GI50 (DMS-273): 3.16 µM
GI50 (UACC-257): 1.58 µM
GI50 (MDA-N): 50.1 µM
GI50 (NCI/ADR-RES): 79.4 µM
GI50 (Malme-3M): > 100 µM
GI50 (SK-OV-3): 79.4 µM
GI50 (SN12C): > 100 µM
GI50 (ACHN): 50.1 µM
GI50 (NCI-H522): 20 µM
GI50 (SK-MEL-5): 1.26 µM
GI50 (HCT-116): 0.631 µM
GI50 (CAKI-1): 63.1 µM
GI50 (SNB-75): 39.8 µM
GI50 (M14): 39.8 µM
GI50 (U-251): 79.4 µM
GI50 (HOP-92): 20 µM
GI50 (COLO 205): 63.1 µM
GI50 (HCT-15): 39.8 µM
GI50 (A498): 63.1 µM
GI50 (EKVX): 25.1 µM
GI50 (786-0): > 100 µM
GI50 (BT-549): 3.16 µM
GI50 (MOLT-4): 39.8 µM
GI50 [7]: 63.1 µM
GI50 (KM-20L2): 50.1 µM
GI50 (A549): 39.8 µM
GI50 (K562): 0.794 µM
GI50 [8]: > 100 µM
GI50 (DLD-1): 79.4 µM
GI50 (SNB-19): > 100 µM
GI50 (RXF 393): 63.1 µM
GI50 (SR): 0.501 µM
GI50 (HOP-62): > 100 µM
GI50 (DU-145): > 100 µM
GI50 (MCF7): > 100 µM
